Measured values reported in the NIST ThermoML archive (doi:10.1016/j.jct.2018.01.015).
Numbers after ± are expanded uncertainties.

Assay: xn = mol fraction of the nth substance listed
Conditions: Gas, rotating-body viscometer for gases

N#N [nitrogen] + O=C=O
viscosity (323.22 K, 200.9 kPa, x1 = 0.4996): 0.0177 ± 4.2e-05 mPa·s
viscosity (323.22 K, 398.6 kPa, x1 = 0.4996): 0.01773 ± 4.2e-05 mPa·s
viscosity (323.22 K, 399.4 kPa, x1 = 0.2479): 0.01695 ± 5.5e-05 mPa·s
viscosity (323.22 K, 598 kPa, x1 = 0.4996): 0.01776 ± 4.2e-05 mPa·s
viscosity (323.22 K, 605 kPa, x1 = 0.2479): 0.01698 ± 5.5e-05 mPa·s
viscosity (323.22 K, 798.9 kPa, x1 = 0.2479): 0.01701 ± 5.5e-05 mPa·s
viscosity (323.22 K, 804.9 kPa, x1 = 0.4996): 0.0178 ± 4.2e-05 mPa·s
viscosity (323.22 K, 996.4 kPa, x1 = 0.4996): 0.01783 ± 4.2e-05 mPa·s
viscosity (323.22 K, 1001.8 kPa, x1 = 0.2479): 0.01705 ± 5.5e-05 mPa·s
viscosity (323.22 K, 1196.8 kPa, x1 = 0.2479): 0.0171 ± 5.5e-05 mPa·s
viscosity (323.22 K, 1198.6 kPa, x1 = 0.4996): 0.01787 ± 4.2e-05 mPa·s
viscosity (323.26 K, 100.6 kPa, x1 = 1): 0.0189 ± 3.1e-05 mPa·s
viscosity (323.26 K, 101.5 kPa, x1 = 1): 0.0189 ± 3.1e-05 mPa·s
viscosity (323.26 K, 200.7 kPa, x1 = 1): 0.0189 ± 3.1e-05 mPa·s
viscosity (323.26 K, 400.4 kPa, x1 = 1): 0.01893 ± 3.1e-05 mPa·s
viscosity (323.26 K, 600.8 kPa, x1 = 1): 0.01896 ± 3.1e-05 mPa·s
viscosity (323.26 K, 800.2 kPa, x1 = 1): 0.01896 ± 3.1e-05 mPa·s
viscosity (323.26 K, 1000.6 kPa, x1 = 1): 0.01901 ± 3.1e-05 mPa·s
viscosity (323.26 K, 1000.9 kPa, x1 = 1): 0.01901 ± 3.1e-05 mPa·s
viscosity (323.27 K, 398.8 kPa, x1 = 1): 0.01893 ± 3.1e-05 mPa·s
viscosity (323.27 K, 1501.9 kPa, x1 = 1): 0.01907 ± 3.1e-05 mPa·s
viscosity (323.27 K, 1802.1 kPa, x1 = 1): 0.01913 ± 3.1e-05 mPa·s
viscosity (373.25 K, 103.3 kPa, x1 = 0.2479): 0.01923 ± 5.5e-05 mPa·s
viscosity (373.25 K, 107.8 kPa, x1 = 0.4996): 0.01998 ± 4e-05 mPa·s
viscosity (373.25 K, 200.1 kPa, x1 = 0.2479): 0.01925 ± 5.5e-05 mPa·s
viscosity (373.25 K, 200.7 kPa, x1 = 0.4996): 0.02 ± 4e-05 mPa·s
viscosity (373.25 K, 391.3 kPa, x1 = 0.4996): 0.02002 ± 4e-05 mPa·s
viscosity (373.25 K, 400.6 kPa, x1 = 0.2479): 0.01928 ± 5.5e-05 mPa·s
viscosity (373.25 K, 598.5 kPa, x1 = 0.4996): 0.02005 ± 4e-05 mPa·s
viscosity (373.25 K, 601.5 kPa, x1 = 0.2479): 0.0193 ± 5.5e-05 mPa·s
viscosity (373.25 K, 799.5 kPa, x1 = 0.4996): 0.02008 ± 4e-05 mPa·s
viscosity (373.25 K, 802.2 kPa, x1 = 0.2479): 0.01933 ± 5.5e-05 mPa·s
viscosity (373.25 K, 998.6 kPa, x1 = 0.4996): 0.02011 ± 4e-05 mPa·s
viscosity (373.25 K, 999.6 kPa, x1 = 0.2479): 0.01937 ± 5.5e-05 mPa·s
viscosity (373.25 K, 1498 kPa, x1 = 0.4996): 0.0202 ± 4e-05 mPa·s
viscosity (373.25 K, 1498.2 kPa, x1 = 0.2479): 0.01947 ± 5.5e-05 mPa·s
viscosity (373.29 K, 100.8 kPa, x1 = 1): 0.02102 ± 3.1e-05 mPa·s
viscosity (373.29 K, 201.1 kPa, x1 = 1): 0.02104 ± 3.1e-05 mPa·s
viscosity (373.29 K, 401 kPa, x1 = 1): 0.02106 ± 3.1e-05 mPa·s
viscosity (373.29 K, 601 kPa, x1 = 1): 0.02107 ± 3.1e-05 mPa·s
viscosity (373.29 K, 1000.3 kPa, x1 = 1): 0.02111 ± 3.1e-05 mPa·s
viscosity (373.29 K, 1500.6 kPa, x1 = 1): 0.02118 ± 3.1e-05 mPa·s
viscosity (373.29 K, 1807.2 kPa, x1 = 1): 0.02122 ± 3.1e-05 mPa·s
viscosity (373.57 K, 108.8 kPa, x1 = 0.7498): 0.02061 ± 5.3e-05 mPa·s
viscosity (373.57 K, 199.2 kPa, x1 = 0.7498): 0.02064 ± 5.3e-05 mPa·s
viscosity (373.57 K, 399.3 kPa, x1 = 0.7498): 0.02065 ± 5.3e-05 mPa·s
viscosity (373.57 K, 598.2 kPa, x1 = 0.7498): 0.02068 ± 5.3e-05 mPa·s
viscosity (373.57 K, 1002.4 kPa, x1 = 0.7498): 0.02073 ± 5.3e-05 mPa·s
viscosity (373.57 K, 1501.2 kPa, x1 = 0.7498): 0.02081 ± 5.3e-05 mPa·s
viscosity (373.57 K, 2041.9 kPa, x1 = 0.7498): 0.02091 ± 5.3e-05 mPa·s
viscosity (423.27 K, 108.9 kPa, x1 = 0.7498): 0.02271 ± 5.9e-05 mPa·s
viscosity (423.27 K, 200.4 kPa, x1 = 0.7498): 0.02272 ± 5.9e-05 mPa·s
viscosity (423.27 K, 398.7 kPa, x1 = 0.7498): 0.02274 ± 5.9e-05 mPa·s
viscosity (423.27 K, 600.7 kPa, x1 = 0.7498): 0.02275 ± 5.9e-05 mPa·s
viscosity (423.27 K, 1000.3 kPa, x1 = 0.7498): 0.02281 ± 5.9e-05 mPa·s
viscosity (423.27 K, 1500.1 kPa, x1 = 0.7498): 0.02287 ± 5.9e-05 mPa·s
viscosity (423.27 K, 2000 kPa, x1 = 0.7498): 0.02293 ± 5.9e-05 mPa·s
viscosity (423.28 K, 107.7 kPa, x1 = 0.2479): 0.02144 ± 6.2e-05 mPa·s
viscosity (423.28 K, 109.4 kPa, x1 = 0.4996): 0.02216 ± 4.5e-05 mPa·s
viscosity (423.28 K, 199.9 kPa, x1 = 0.4996): 0.02216 ± 4.5e-05 mPa·s
viscosity (423.28 K, 400 kPa, x1 = 0.4996): 0.02219 ± 4.5e-05 mPa·s
viscosity (423.28 K, 603 kPa, x1 = 0.4996): 0.02221 ± 4.5e-05 mPa·s
viscosity (423.28 K, 1001.7 kPa, x1 = 0.4996): 0.02226 ± 4.5e-05 mPa·s
viscosity (423.28 K, 1496.5 kPa, x1 = 0.4996): 0.02233 ± 4.5e-05 mPa·s
viscosity (423.28 K, 1995 kPa, x1 = 0.4996): 0.02242 ± 4.5e-05 mPa·s
viscosity (423.29 K, 201.4 kPa, x1 = 0.2479): 0.02145 ± 6.2e-05 mPa·s
viscosity (423.29 K, 405.1 kPa, x1 = 0.2479): 0.02148 ± 6.2e-05 mPa·s
viscosity (423.29 K, 601.1 kPa, x1 = 0.2479): 0.02151 ± 6.2e-05 mPa·s
viscosity (423.29 K, 1000.7 kPa, x1 = 0.2479): 0.02156 ± 6.2e-05 mPa·s
viscosity (423.29 K, 1495.1 kPa, x1 = 0.2479): 0.02165 ± 6.2e-05 mPa·s
viscosity (423.29 K, 1998.5 kPa, x1 = 0.2479): 0.02175 ± 6.2e-05 mPa·s
viscosity (423.33 K, 100.9 kPa, x1 = 1): 0.02302 ± 3.4e-05 mPa·s
viscosity (423.33 K, 200.9 kPa, x1 = 1): 0.02303 ± 3.4e-05 mPa·s
viscosity (423.33 K, 400.7 kPa, x1 = 1): 0.02306 ± 3.4e-05 mPa·s
viscosity (423.33 K, 600.6 kPa, x1 = 1): 0.02308 ± 3.4e-05 mPa·s
viscosity (423.33 K, 1000.5 kPa, x1 = 1): 0.02311 ± 3.4e-05 mPa·s
viscosity (423.33 K, 1500.2 kPa, x1 = 1): 0.02316 ± 3.4e-05 mPa·s
viscosity (423.33 K, 1799.4 kPa, x1 = 1): 0.02319 ± 3.4e-05 mPa·s
viscosity (473.31 K, 108.7 kPa, x1 = 0.7498): 0.0247 ± 6.3e-05 mPa·s
viscosity (473.31 K, 199 kPa, x1 = 0.7498): 0.02471 ± 6.3e-05 mPa·s
viscosity (473.31 K, 399 kPa, x1 = 0.7498): 0.02472 ± 6.3e-05 mPa·s
viscosity (473.31 K, 602.8 kPa, x1 = 0.7498): 0.02474 ± 6.3e-05 mPa·s
viscosity (473.31 K, 1003.8 kPa, x1 = 0.7498): 0.02477 ± 6.3e-05 mPa·s
viscosity (473.31 K, 1501.4 kPa, x1 = 0.7498): 0.02482 ± 6.3e-05 mPa·s
viscosity (473.31 K, 1996.7 kPa, x1 = 0.7498): 0.02489 ± 6.3e-05 mPa·s
viscosity (473.32 K, 108.1 kPa, x1 = 0.4996): 0.02422 ± 4.8e-05 mPa·s
viscosity (473.32 K, 203.7 kPa, x1 = 0.4996): 0.02423 ± 4.8e-05 mPa·s
viscosity (473.32 K, 400.1 kPa, x1 = 0.4996): 0.02424 ± 4.8e-05 mPa·s
viscosity (473.32 K, 602.4 kPa, x1 = 0.4996): 0.02427 ± 4.8e-05 mPa·s
viscosity (473.32 K, 1006.2 kPa, x1 = 0.4996): 0.02431 ± 4.8e-05 mPa·s
viscosity (473.32 K, 1503 kPa, x1 = 0.4996): 0.02437 ± 4.8e-05 mPa·s
viscosity (473.32 K, 1991.9 kPa, x1 = 0.4996): 0.02444 ± 4.8e-05 mPa·s
viscosity (473.34 K, 109.3 kPa, x1 = 0.2479): 0.02355 ± 6.6e-05 mPa·s
viscosity (473.34 K, 203.1 kPa, x1 = 0.2479): 0.02356 ± 6.6e-05 mPa·s
viscosity (473.34 K, 395.8 kPa, x1 = 0.2479): 0.02358 ± 6.6e-05 mPa·s
viscosity (473.34 K, 597.3 kPa, x1 = 0.2479): 0.02359 ± 6.6e-05 mPa·s
viscosity (473.34 K, 1000.4 kPa, x1 = 0.2479): 0.02365 ± 6.6e-05 mPa·s
viscosity (473.34 K, 1495.4 kPa, x1 = 0.2479): 0.02373 ± 6.6e-05 mPa·s
viscosity (473.34 K, 1998.5 kPa, x1 = 0.2479): 0.02382 ± 6.6e-05 mPa·s
viscosity (473.38 K, 100.7 kPa, x1 = 1): 0.02494 ± 3.6e-05 mPa·s
viscosity (473.38 K, 200.8 kPa, x1 = 1): 0.02495 ± 3.6e-05 mPa·s
viscosity (473.38 K, 398.5 kPa, x1 = 1): 0.02496 ± 3.6e-05 mPa·s
viscosity (473.38 K, 600.9 kPa, x1 = 1): 0.02497 ± 3.6e-05 mPa·s
viscosity (473.38 K, 1000.7 kPa, x1 = 1): 0.02499 ± 3.6e-05 mPa·s
viscosity (473.38 K, 1500.6 kPa, x1 = 1): 0.02503 ± 3.6e-05 mPa·s
viscosity (473.38 K, 1799.3 kPa, x1 = 1): 0.02505 ± 3.6e-05 mPa·s
